Measurements published in patent publication US5691349A, “Quinclidine derivatives as squalene synthase inhibitors” (Zeneca Limited, priority 1992, dated 1997).
pIC50: −log10 of the molar value. Where a name gives a salt, the structure may show the parent alone.

What was measured:
[1] = target: T1, squalene synthetase (Rattus norvegicus, UniProt Q02769); experiment: Inhibition of Squalene Synthetase (prevention of squalene formation from tritiated farnesyl pyrophosphate, rat liver microsomal protein); type: biochemical; details: rat liver microsomes; 1-[3H]-farnesyl pyrophosphate 20 μM; 37° C.; 15 minutes; read-out: IC50 (concentration which results in a 50% inhibition of squalene production)
T1 construct: rat liver microsomal protein (20 μg); from tissue; host or cells: rat liver microsomes
T1 sequence (Q02769 1-416): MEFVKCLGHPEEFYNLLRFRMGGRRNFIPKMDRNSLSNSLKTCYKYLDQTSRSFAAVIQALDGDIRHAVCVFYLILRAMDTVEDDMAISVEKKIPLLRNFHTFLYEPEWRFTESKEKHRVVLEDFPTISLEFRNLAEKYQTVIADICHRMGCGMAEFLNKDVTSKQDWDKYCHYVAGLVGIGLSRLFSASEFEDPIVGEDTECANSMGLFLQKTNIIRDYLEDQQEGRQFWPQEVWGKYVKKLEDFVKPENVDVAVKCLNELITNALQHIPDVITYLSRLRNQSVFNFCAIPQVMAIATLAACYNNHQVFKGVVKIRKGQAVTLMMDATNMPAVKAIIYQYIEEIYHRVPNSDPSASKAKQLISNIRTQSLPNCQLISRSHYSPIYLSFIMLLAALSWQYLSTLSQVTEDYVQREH
Protocol: (a) Inhibition of Squalene Synthetase
In this test, the ability of a compound to prevent the formation of squalene from a radioactive substrate (tritiated farnesyl pyrophosphate) is assessed.
The test compound is incubated at a concentration of 25 micromolar in 200 μl of a buffered solution containing potassium phosphate (50 mM), MgCl2 (4.95 mM), KF (9.9 mM), NADPH (0.9 mM) and rat liver microsomal protein (20 μg). Rat liver microsomes are prepared by the method described in published European Patent Application No. 324,421 and stored in liquid nitrogen prior to assay. Assay vials are kept at 37° C. throughout the incubation.
The reaction is started with the addition of the substrate (1-[^3 H]-farnesyl pyrophosphate), final concentration 20 μM, and stopped after 15 minutes reaction time with the addition of 50 μl of 4% KOH. The reaction products are separated from unreacted substrate after application to a C-18 octadecyl 1 ccBond column (Analytichem Int product No. 617101). An aqueous fraction is eluted with 250 μl of 0.1M KOH. Squalene is then eluted with 1.0 ml 10% ethylacetate in hexane and radioactivity determined. The difference in radioactivity in the presence and absence of the test compound is used to determine the level of inhibition. […] The IC50 can then be determined from a plot of percentage inhibition against concentration of test compound.

[2] = tested on: de novo hepatic cholesterol synthesis; experiment: Acute rat cholesterol synthesis assay (de novo hepatic cholesterol synthesis from 14C-acetate); type: in vivo; details: female rats, oral gavage, ip or iv dosing (route not given)
Protocol: (b) Acute rat cholesterol synthesis assay.
This is an acute in vivo test in the rat to measure de novo hepatic cholesterol synthesis from exogenously administered ^14 C-acetate.
Female rats (35-55 g) are housed in reverse lighting conditions (red light from 0200 h-1400 h) for a period of about 2 weeks prior to test. Animals are allowed free access to chow and drinking water throughout this period. At test, animals should weigh 125-150 g.
Test compounds may be administered by oral gavage, dissolved or suspended in 0.5% polysorbate, or by ip or iv dosing. Control animals receive vehicle alone. After 1 hour the rats are injected ip with 25 μCi [2-^14 C]-acetate (NEN DUPONT. specific activity, 45-60 mCi/mmol NEC-085H, or AMERSHAM specific activity, 50-60 mCi/mmol CFA 14) in a volume of 0.25 ml saline (100 μCi/ml). After a further hour, rats are terminally anaesthetised with halothane and a blood sample obtained from the abdominal vena cava.
1 ml of plasma is lyophilised and then saponified in 2 ml ethanolic KOH (1 part 33% KOH, 9 parts ethanol) at 75° C. for 2 hours. After addition of an equal quantity of water, non-saponifiable lipids are extracted with two 5 ml volumes of hexane. The hexane extracts are evaporated to dryness and the residues dissolved in ethanol to determine cholesterol specific radioactivity. EC50 values can be determined in the standard way.

## CCCCOc1ccc(CCC2CN3CCC2CC3)cc1 (centres unmarked) [Example 4, 3-[2-(4-butoxyphenyl)ethyl]-quinuclidine hydrochloride]
[1]
  pIC50: 7.48

## CCCCCc1ccc(C#CC2(O)CN3CCC2CC3)cc1 (centres unmarked) [Example 18, 3-[2-(4-pentylphenyl)ethynyl]-3-hydroxyquinuclidine]
[2]
  ED50: ~21.5 mg/kg
